Tests used:
[1] = test system: 8 mm biopsy wound of the skin in C57Bl/6 mice; test: Wound healing after 8 mm skin biopsy, per os treatment, macroscopic wound size; type: in vivo; conditions: for wound in average smaller than placebo: between the 4th and the 14th day post-injury; for size of the wound vs placebo in the course of wound closure: until 16 days post injury
Protocol: (§1) All procedures in this study were approved by the Animal Care and Use committee at the Institut Pasteur (CETEA 2016-0007). Unless specified, 6 weeks old male mice C57Bl/6Rj were used in this study and housed on a 12:12 light/dark cycle in a pathogen free facility with controlled temperature and humidity. Food and drink were given ad libitum. Fluoxetine was dissolved in 0.9% NaCl and delivered either by intra peritoneal injections or per os at 18 mg/Kg. Control group received daily injections of 0.9% NaCl. For vortioxetine mice also received the product either dissolved in 96% Ethanol and then diluted 1/200 in water ad libitum at 20 mg/kg or dissolved in 96% Ethanol and then diluted 1/200 in 0.9% NaCl, final concentration 20 mg/kg body weight corrected. For topical applications vortioxetine was dissolved in 0.9% Nacl and directly applied in the wound the 3 first days and then on top on the wound the following days, every day.
(§2) Mice were anesthetized using Isoflurane, initially in an induction chamber. The anaesthetised mice were transferred to the anaesthetic nose-cone and maintained on a heated block throughout the procedure (typically for about 5 minutes). Analgesic was administered by subcutaneous injection e.g. buprenorphine 1.5 μl of […] solution, diluted in 30 μl sterile water. The area of the biopsy was shaved. Then an area of dorsal skin was rendered sterile by swabbing with Videne surgical scrub followed by sterile water. A 8 mm sterile punch biopsy was used to create an incision through the epidermis/dermis to the muscle fascia. Any bleeding at this step was carefully avoided. The punch biopsy was removed and the skin separated from muscle connective tissues using forceps or blunted scissors. Mice were then removed from the anesthetic nose-cone and housed in sterilised cages containing paper liner and paper bedding. They were kept warm (using a cage placed on a heated mat) until fully recovered from the effects of the anaesthetic.
In order to assess the regenerative potential of the skin, a 8 mm biopsy of the skin was performed in C57Bl/6 mice, which were either treated per os with fluoxetine at 18 mg/kg or with vortioxetine at 20 mg/kg for 6 weeks and 12 days respectively (FIG. 1A) and during the healing process.

[2] = test system: 8 mm biopsy wound of the skin in C57Bl/6 mice; test: Wound healing after 8 mm skin biopsy, topical application without pre-treatment; type: in vivo
Protocol: as §1, §2
To further confirm the data, the same protocol was performed on C57Bl/6 mice wounded with 8 mm biopsy, but this time the mice were not pre-treated and received topical (300 μl) applications of vortioxetine at a concentration of 20 mg/ml diluted in 96% ethanol. The placebo received the same amount of 96% ethanol. […] Six days post injury, the size of the wound was smaller in the animals topically treated with vortioxetine (FIG. 1L). Eight days post injury, the size of the wound was 10 times lower than the placebo (FIG. 1L).

[3] = test system: 8 mm biopsy wound of the skin in C57Bl/6 mice; test: Histological analysis of the wound (H&E, re-epithelization, Ki67 immunostaining); type: in vivo; conditions: for cell infiltration in the dermis vs placebo / number of Ki67+ cells (proliferating cells) in the wound vs placebo / open wounded area vs placebo (H&E): 5 days post injury; for number of cycling cells vs placebo: 14 days post injury; for number of vessels: at the time of the biopsy (T0), H&E, per os treatment, placebo 4.8±1.3; for length of the epithelial tongues vs placebo: day 5 after injury; for distances between the tips of the epithelial tongues vs placebo: day 5 after wounding
Protocol: Width of the wound and distance of the traversed epithelium were measured on H&E.
Percent of re-epithelization was calculated according to the following formula: [distance covered by epithelium]/[distance between wound bed]×100.
The extent of epithelialization and granulation tissue formation was determined on H&E-stained paraffin tissue sections. The length of the epithelial tongue was determined as the distance that the neo-epithelium had migrated from the margin of the wound as defined by the presence of hair follicles in non-wounded skin.
Immunostaining was performed on formol fixed sections. Permeabilized with 0.5% Triton X-100 20 min at room temperature, washed, and blocked with 10% BSA for 30 min. Sections were incubated with primary antibodies overnight at 4° C. and with Alexa-conjugated secondary antibodies 1/250 and Hoechst for 45 minutes. Sections were then analysed using an automated axioscan (Zeiss) or inverted Observer.Z1 Apotome (Zeiss).
To further characterize the wound closure, histological analysis was performed at the time of the biopsy (T0), 5 days post injury and 14 days post injury.

[4] = test system: hair and hair follicle of mice; test: Hair and skin measurements after treatment without shaving; type: in vivo; conditions: no shaving; for hair size: per os fluoxetine 18 mg/kg 6 weeks, vortioxetine 20 mg/kg 12 days; for hair follicle length / skin thickness: per os
Protocol: as §1
To study the possible effect of fluoxetine and vortioxetine on hair growth, fluoxetine (at 18 mg/kg) or vortioxetine (at 20 mg/kg) was provided per os to mice for 6 weeks and 12 days, respectively. […] However, when the hairs were challenged with shaving or depilation, a faster growth of hairs was observed

[5] = test system: hair growth of shaved mice; test: Hair growth after shaving (clippers) or depilation (wax); type: in vivo; conditions: for hair regeneration after shaving: 5 and 10 days after shaving; for hair growth, differences between the groups: 24 days after shaving; for growth of hairs in both protocols (clippers, wax): after shaving or depilation
Protocol: 2 different protocols were used to remove the hair from the mice. Mice were anesthetized using Isoflurane, initially in an induction chamber. The anaesthetised mice were transferred to the anaesthetic nose-cone and maintained on a heated block throughout the procedure (typically for about 5 minutes). In protocol 1, shaving was performed by cutting the hair: the mice were gently restrained manually and half of their back was shaved with portable electric hair clippers. In protocol 2, some hair was firstly removed with forceps and wax was used to unstack the hair. The wax was applied twice for maximum efficiency.
The skin color of the mouse skin was measured three times in 5 different locations of the shaved skin randomly and averaged within a 16×16 mm2 field, using ImageJ. The luminance measured reflects the relative darkness ranging from white (0) to black (1 0 0).
In order to study the influence of fluoxetine or vortioxetine on hair growth after a stress 2 different protocols were used on the same mouse. The half right part of the mouse back was shaved by cutting the hair with hairs clippers, and, in parallel, the hairs were removed using wax to unstack the hairs on the left part of the back (FIG. 4G). […] This was still true 10 days after shaving with longer hairs in the treated animals compared with placebo (FIG. 4J,M,N). […] These observations are in favor of a faster growth and faster regeneration but not bigger or longer hairs.

hair growth in patients = conditions: about 100 patients, cited from earlier work
5HT1 BR = target: T1, 5HT1 BR (Mus musculus, UniProt P28334); test: Wound closure with topical 5HT1 BR agonist, with or without 5HT1 BR antagonist; type: in vivo, mice; conditions: for size of the wound: 6 days post injury, control 15.09±2.3
T1 construct: from tissue; host or cells: live mice, skin wound (in vivo)
T1 sequence (P28334 whole entry): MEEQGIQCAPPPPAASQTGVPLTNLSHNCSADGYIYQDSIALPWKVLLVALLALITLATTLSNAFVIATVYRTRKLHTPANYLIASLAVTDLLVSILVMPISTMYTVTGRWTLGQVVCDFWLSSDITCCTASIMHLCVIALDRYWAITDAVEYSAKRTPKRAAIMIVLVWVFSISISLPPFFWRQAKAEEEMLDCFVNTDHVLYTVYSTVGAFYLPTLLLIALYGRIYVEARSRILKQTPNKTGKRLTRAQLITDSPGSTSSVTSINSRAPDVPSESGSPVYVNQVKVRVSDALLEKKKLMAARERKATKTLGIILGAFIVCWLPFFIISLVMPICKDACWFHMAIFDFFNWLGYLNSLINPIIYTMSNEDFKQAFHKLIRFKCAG
Protocol: Mice were treated with another 5HT1 BR agonist (CP 94253) directly on the wound (topic administration) at a concentration of 0.5 μmol, 12 h after a wound injury.
No pretreatment was performed on this set of experiments and the drug was administered once a day for the totality of the duration of the wound closure. Controls group received PBS topically only, once a day for the total duration of the treatment.

[6] = first 24 hours, per os fluoxetine 18 mg/kg 6 weeks or vortioxetine 20 mg/kg 12 days pre-treatment and during healing
[7] = six days post injury, per os, placebo 15.67
[8] = sixteen days post injury, per os
[9] = sixteen days post injury, per os, placebo 0.5

SMILES: Cc1ccc(Sc2ccccc2N2CCNCC2)c(C)c1 [vortioxetine, 1-[2-(2,4-Dimethylphenylsulfanyl)phenyl]piperazine]
- wound in average smaller than placebo [1]: 35%
- size of the wound vs placebo [1, 6]: No difference
- size of the wound vs placebo ([1]; four days post injury, per os): smaller
- area of the wound [1, 7]: 10.10 mm^2
- skin regeneration at the macroscopic level [1, 8]: virtually completely regenerated
- area of the wound [1, 9]: 0.05 mm^2
- size of the wound vs placebo in the course of wound closure ([1]; per os): constantly smaller
- sizes of the wounds vs placebo ([2]; T0 to 4 days post injury, topical 300 μl of 20 mg/ml, no pre-treatment): No differences
- size of the wound relative to placebo ([2]; eight days post injury, topical): 10 times lower than the placebo
- size of the wound vs placebo ([2]; six days post injury, topical): smaller
- wound closure ([2]; sixteen days post injury, topical, placebo 0.20 mm^2): virtually completely closed
- cell infiltration in the dermis vs placebo [3]: more cells
- number of Ki67+ cells (proliferating cells) in the wound vs placebo [3]: higher
- open wounded area vs placebo (H&E) [3]: smaller
- number of cycling cells vs placebo [3]: No differences
- number of vessels [3]: 8.7±3.5 vessels/mm^2
- length of the epithelial tongues vs placebo [3]: significantly increased
- distances between the tips of the epithelial tongues vs placebo [3]: significantly shorter
- hair size [4]: No differences
- hair follicle length [4]: No differences
- skin thickness [4]: did not change
- hair regeneration after shaving [5]: more advanced, faster regeneration of the hairs
- hair growth vs placebo ([5]; 5 days after shaving): More advanced hair growth
- hair growth vs placebo ([5]; 10 days after shaving): longer hairs
- hair growth, differences between the groups [5]: no differences
- growth of hairs in both protocols (clippers, wax) [5]: faster growth

SMILES: CCOC(=O)c1ccnc(C(=O)OCC)c1 [stemoxydin]
- new hairs compared to the normal average of 50 to 100 new hairs growing every day (hair growth in patients; 90 days): 4%
- average new hairs (hair growth in patients; in 90 days): 1500 new hairs

SMILES: COc1ccc(NC(=O)c2ccc(-c3ccc(-c4noc(C)n4)cc3C)cc2)cc1N1CCN(C)CC1 [GR127935]
- size of the wound (5HT1 BR; antagonist by osmotic pumps at 4 mg/kg concomitant with topical agonist CP 94253): 10.3±3.1
- effect of the antagonist on the positive effects of the agonist (5HT1 BR; osmotic pumps at 4 mg/kg, concomitant with CP 94253): blocked partially

SMILES: CCCOc1ccc2[nH]cc(C3=CCNCC3)c2n1 [CP 94253]
- size of the wound (5HT1 BR; topical 0.5 μmol once a day from 12 h after injury, no pretreatment): 7.7±2.5

SMILES: CNCCC(Oc1ccc(C(F)(F)F)cc1)c1ccccc1 (stereo not drawn) [fluoxetine]
- wound in average smaller than placebo [1]: 27%
- size of the wound vs placebo [1, 6]: No difference
- size of the wound vs placebo ([1]; four days post injury, per os): smaller
- area of the wound [1, 7]: 11.48 mm^2
- skin regeneration at the macroscopic level [1, 8]: virtually completely regenerated
- area of the wound [1, 9]: 0.05 mm^2
- size of the wound vs placebo ([1]; two days post injury, per os): smaller
- size of the wound vs placebo in the course of wound closure ([1]; per os): constantly smaller
- cell infiltration in the dermis vs placebo [3]: more cells
- number of Ki67+ cells (proliferating cells) in the wound vs placebo [3]: higher
- open wounded area vs placebo (H&E) [3]: smaller
- number of cycling cells vs placebo [3]: No differences
- number of vessels [3]: 8.2±2.7 vessels/mm^2
- length of the epithelial tongues vs placebo [3]: significantly increased
- distances between the tips of the epithelial tongues vs placebo [3]: significantly shorter
- hair size [4]: No differences
- hair follicle length [4]: No differences
- skin thickness [4]: did not change
- hair regeneration after shaving [5]: more advanced, faster regeneration of the hairs
- hair growth vs placebo ([5]; 5 days after shaving): More advanced hair growth
- hair growth vs placebo ([5]; 10 days after shaving): longer hairs
- hair growth, differences between the groups [5]: no differences
- growth of hairs in both protocols (clippers, wax) [5]: faster growth
